Where “and” joins values, the source holds several entries; their conditions need not be identical. Equal entries are not always repeated. Calls of active or inactive are those of the source. No rule for the calls is given here.
Test system: rodent lifetime carcinogenesis bioassay, tumor incidence TD50
Test: chronic cancer bioassays in animals – CPDB, compiled studies (AID 1745844)

## COC1=CC(=O)C[C@@H](C)[C@]12Oc1c(Cl)c(OC)cc(OC)c1C2=O
hamster, strain Syrian Golden, females, in feed, site: liver, lesion: cholangiocarcinoma, dosed 97 weeks, study length 101 weeks
  carcinogen call: negative (inactive)
hamster, strain Syrian Golden, males, in feed, site: liver, lesion: one or several types, types not named, dosed 123 weeks, study length 127 weeks
  carcinogen call: negative (inactive)
mouse, strain Swiss albino, females, by gavage, site: mammary gland, lesion: infiltrating duct carcinoma, dosed 52 weeks, study length 52 weeks
  TD50: 13.8 mg/kg/day
mouse, strain Swiss, females, in feed, site: liver, lesion: hemangioma, dosed 115 weeks, study length 115 weeks
  carcinogen call: negative (inactive)
mouse, strain Swiss, females, in feed, site: lung, lesion: one or several types, types not named, dosed 115 weeks, study length 115 weeks
  carcinogen call: negative (inactive)
mouse, strain Swiss, males, in feed, site: liver, lesion: hemangioma, dosed 115 weeks, study length 115 weeks
  carcinogen call: negative (inactive)
mouse, strain Swiss, males, in feed, site: liver, lesion: hepatoma, dosed 115 weeks, study length 115 weeks
  TD50: 1660 mg/kg/day
mouse, strain Swiss, males, in feed, site: lung, lesion: one or several types, types not named, dosed 115 weeks, study length 115 weeks
  carcinogen call: negative (inactive)

## C=CC(OCC)OCC
rat, strain Fischer 344, females, in drinking water, site: liver, lesion: hyperplastic nodule, dosed 102 weeks, study length 130 weeks
  TD50: 131 mg/kg/day
rat, strain Fischer 344, females, in drinking water, site: liver, lesion: several types, types named in the paper, dosed 102 weeks, study length 130 weeks
  TD50: 123 mg/kg/day
rat, strain Fischer 344, males, in drinking water, site: liver, lesion: hepatocellular carcinoma, dosed 102 weeks, study length 130 weeks
  TD50: 262 mg/kg/day
rat, strain Fischer 344, males, in drinking water, site: liver, lesion: hyperplastic nodule, dosed 102 weeks, study length 130 weeks
  TD50: 266 mg/kg/day
rat, strain Fischer 344, males, in drinking water, site: liver, lesion: several types, types named in the paper, dosed 102 weeks, study length 130 weeks
  TD50: 124 mg/kg/day

## COS(C)(=O)=O
mouse, strain RF, males, in drinking water, site: liver, lesion: one or several types, types not named, dosed 104 weeks, study length 104 weeks
  TD50: 3980 mg/kg/day (inactive)
mouse, strain RF, males, in drinking water, site: lung, lesion: adenoma, dosed 104 weeks, study length 104 weeks
  TD50: 31.8 mg/kg/day
mouse, strain RF, males, in drinking water, site: thymus gland, lesion: lymphoma, dosed 104 weeks, study length 104 weeks
  TD50: 185 mg/kg/day

## N#CN=C(N)N
rat, strain F344/DuCrj, females, in feed, site: any site (literature study), lesion: several types, types named in the paper, dosed 104 weeks, study length 113 weeks
  carcinogen call: negative (inactive)
rat, strain F344/DuCrj, females, in feed, site: liver, lesion: one or several types, types not named, dosed 104 weeks, study length 113 weeks
  carcinogen call: negative (inactive)
rat, strain F344/DuCrj, males, in feed, site: any site (literature study), lesion: several types, types named in the paper, dosed 104 weeks, study length 113 weeks
  carcinogen call: negative (inactive)
rat, strain F344/DuCrj, males, in feed, site: liver, lesion: hepatocellular adenoma, dosed 104 weeks, study length 113 weeks
  TD50: 109000 mg/kg/day (inactive)
rat, strain F344/DuCrj, males, in feed, site: subcutaneous tissue, lesion: lipoma, dosed 104 weeks, study length 113 weeks
  TD50: 15600 mg/kg/day (inactive)

## COc1cc(CNC(=O)CCCC/C=C/C(C)C)ccc1O
mouse, strain B6C3F1, females, in feed, site: any site (literature study), lesion: several types, types named in the paper, dosed 79 weeks, study length 83 weeks
  carcinogen call: negative (inactive)
mouse, strain B6C3F1, females, in feed, site: liver, lesion: several types, types named in the paper, dosed 79 weeks, study length 83 weeks
  carcinogen call: negative (inactive)
mouse, strain B6C3F1, females, in feed, site: lung, lesion: adenoma, dosed 79 weeks, study length 83 weeks
  carcinogen call: negative (inactive)
mouse, strain B6C3F1, males, in feed, site: any site (literature study), lesion: several types, types named in the paper, dosed 79 weeks, study length 83 weeks
  TD50: 2040 mg/kg/day (inactive)
mouse, strain B6C3F1, males, in feed, site: liver, lesion: several types, types named in the paper, dosed 79 weeks, study length 83 weeks
  carcinogen call: negative (inactive)
mouse, strain B6C3F1, males, in feed, site: lung, lesion: adenoma, dosed 79 weeks, study length 83 weeks
  TD50: 16100 mg/kg/day (inactive)
mouse, strain Swiss albino, females, in feed, site: cecum, lesion: polypoid adenoma, dosed 152 weeks, study length 152 weeks
  TD50: 167 mg/kg/day
mouse, strain Swiss albino, females, in feed, site: duodenum, lesion: adenocarcinoma, dosed 152 weeks, study length 152 weeks
  TD50: 2310 mg/kg/day
mouse, strain Swiss albino, females, in feed, site: lung, lesion: adenoma, dosed 152 weeks, study length 152 weeks
  TD50: 225 mg/kg/day
mouse, strain Swiss albino, females, in feed, site: lung, lesion: several types, types named in the paper, dosed 152 weeks, study length 152 weeks
  TD50: 1080 mg/kg/day
mouse, strain Swiss albino, males, in feed, site: cecum, lesion: polypoid adenoma, dosed 124 weeks, study length 124 weeks
  carcinogen call: positive
mouse, strain Swiss albino, males, in feed, site: duodenum, lesion: several types, types named in the paper, dosed 124 weeks, study length 124 weeks
  TD50: 404 mg/kg/day

## O=[N+]([O-])c1ccc2nc[nH]c2c1
mouse, strain B6C3F1, females, in feed, site: any site (literature study), lesion: several types, types named in the paper, dosed 78 weeks, study length 95 weeks
  TD50: 429 mg/kg/day
mouse, strain B6C3F1, females, in feed, site: liver, lesion: hepatocellular adenoma + hepatocellular carcinoma + neoplastic nodule, dosed 78 weeks, study length 95 weeks
  TD50: 354 mg/kg/day
mouse, strain B6C3F1, females, in feed, site: liver, lesion: hepatocellular adenoma + hepatocellular carcinoma, dosed 78 weeks, study length 95 weeks
  TD50: 354 mg/kg/day
mouse, strain B6C3F1, females, in feed, site: liver, lesion: hepatocellular carcinoma, dosed 78 weeks, study length 95 weeks
  TD50: 762 mg/kg/day
mouse, strain B6C3F1, females, in feed, site: pituitary gland, lesion: adenoma, NOS + chromophobe adenoma, dosed 78 weeks, study length 95 weeks
  TD50: 335 mg/kg/day
mouse, strain B6C3F1, males, in feed, site: any site (literature study), lesion: several types, types named in the paper, dosed 78 weeks, study length 95 weeks
  TD50: 1980 mg/kg/day
mouse, strain B6C3F1, males, in feed, site: liver, lesion: hepatocellular adenoma + hepatocellular carcinoma + neoplastic nodule, dosed 78 weeks, study length 95 weeks
  TD50: 392 mg/kg/day
mouse, strain B6C3F1, males, in feed, site: liver, lesion: hepatocellular adenoma + hepatocellular carcinoma, dosed 78 weeks, study length 95 weeks
  TD50: 392 mg/kg/day
mouse, strain B6C3F1, males, in feed, site: liver, lesion: hepatocellular carcinoma, dosed 78 weeks, study length 95 weeks
  TD50: 423 mg/kg/day
rat, strain Fischer 344, females, in feed, site: any site (literature study), lesion: several types, types named in the paper, dosed 78 weeks, study length 105 weeks
  carcinogen call: negative (inactive)
rat, strain Fischer 344, males, in feed, site: any site (literature study), lesion: several types, types named in the paper, dosed 78 weeks, study length 105 weeks
  carcinogen call: negative (inactive)
rat, strain Fischer 344, males, in feed, site: liver, lesion: hepatocellular adenoma + hepatocellular carcinoma + neoplastic nodule, dosed 78 weeks, study length 105 weeks
  TD50: 8830 mg/kg/day

## O.O=S(=O)(O)O.[Cd]
mouse, strain Swiss, males, by gavage, site: liver, lesion: several types, types named in the paper, dosed 78 weeks, study length 78 weeks
  carcinogen call: negative (inactive)
mouse, strain Swiss, males, by gavage, site: lung, lesion: several types, types named in the paper, dosed 78 weeks, study length 78 weeks
  TD50: 1.78 mg/kg/day (inactive)
rat, strain C.B. hooded, males, by gavage, site: liver, lesion: liver-cell adenoma, dosed 104 weeks, study length 114 weeks
  TD50: 1.17 mg/kg/day (inactive)

## O=C(O)c1cccnc1
mouse, strain Swiss albino, females, in drinking water, site: liver, lesion: several types, types named in the paper, dosed 139 weeks, study length 139 weeks
  carcinogen call: negative (inactive)
mouse, strain Swiss albino, females, in drinking water, site: lung, lesion: one or several types, types not named, dosed 139 weeks, study length 139 weeks
  TD50: 17000 mg/kg/day (inactive)
mouse, strain Swiss albino, males, in drinking water, site: liver, lesion: several types, types named in the paper, dosed 119 weeks, study length 119 weeks
  carcinogen call: negative (inactive)
mouse, strain Swiss albino, males, in drinking water, site: lung, lesion: one or several types, types not named, dosed 119 weeks, study length 119 weeks
  carcinogen call: negative (inactive)

## Cc1cc(C)c(N=Nc2c(O)c(S(=O)(=O)O)cc3cc(S(=O)(=O)O)ccc23)cc1C
rat, strain Bethesda black, both sexes, in feed, site: liver, lesion: carcinoma, dosed 104 weeks, study length 104 weeks
  TD50: 2480 mg/kg/day
rat, strain Bethesda black, both sexes, in feed, site: liver, lesion: hepatocellular tumor, benign, dosed 104 weeks, study length 104 weeks
  TD50: 3540 mg/kg/day
rat, strain Bethesda black, both sexes, in feed, site: liver, lesion: nodular hyperplasia, dosed 104 weeks, study length 104 weeks
  TD50: 3040 mg/kg/day
rat, strain Bethesda black, both sexes, in feed, site: liver, lesion: several types, types named in the paper, dosed 104 weeks, study length 104 weeks
  TD50: 746 mg/kg/day
rat, strain Not specified, females, in feed, site: bile duct, lesion: adenoma, dosed 65 weeks, study length 65 weeks
  TD50: 1570 mg/kg/day
rat, strain Not specified, females, in feed, site: liver, lesion: carcinoma, dosed 65 weeks, study length 65 weeks
  TD50: 1990 mg/kg/day
rat, strain Not specified, males, in feed, site: bile duct, lesion: adenoma, dosed 65 weeks, study length 65 weeks
  TD50: 755 mg/kg/day
rat, strain Not specified, males, in feed, site: liver, lesion: carcinoma, dosed 65 weeks, study length 65 weeks
  TD50: 1240 mg/kg/day
rat, strain Osborne-Mendel, both sexes, in feed, site: any site (literature study), lesion: malignant tumor, dosed 104 weeks, study length 104 weeks
  TD50: 12900 mg/kg/day
rat, strain Osborne-Mendel, both sexes, in feed, site: liver, lesion: carcinoma, dosed 104 weeks, study length 104 weeks
  TD50: 7540 mg/kg/day
rat, strain Osborne-Mendel, both sexes, in feed, site: liver, lesion: hepatocellular tumor, benign, dosed 104 weeks, study length 104 weeks
  TD50: 909 mg/kg/day
rat, strain Osborne-Mendel, both sexes, in feed, site: liver, lesion: nodular hyperplasia, dosed 104 weeks, study length 104 weeks
  TD50: 639 mg/kg/day
rat, strain Wistar, both sexes, in feed, site: liver, lesion: one or several types, types not named, dosed 65 weeks, study length 65 weeks
  TD50: 225 mg/kg/day and 394 mg/kg/day
rat, strain Wistar, both sexes, in feed, site: liver, lesion: one or several types, types not named, dosed 70 weeks, study length 70 weeks
  TD50: 314 mg/kg/day and 420 mg/kg/day

## CCCCCCCCCCC(C)c1ccc(S(=O)(=O)O)cc1 (stereo not drawn)
rat, strain Slc-Wistar, females, in feed, site: preputial gland, lesion: several types, types named in the paper, dosed 142 weeks, study length 148 weeks
  carcinogen call: negative (inactive)
rat, strain Slc-Wistar, males, in feed, site: preputial gland, lesion: several types, types named in the paper, dosed 127 weeks, study length 139 weeks
  carcinogen call: negative (inactive)

From PubChem BioAssay AID1745844 (Carcinogenic Potency Database (CPDB), 2022)
